This note sets out measurements from patent US9072293B2, “Cyclopropenes and method for applying cyclopropenes to agricultural products or crops” (Erum Biotechnologies Inc., priority 2010, dated 2015).

Data set [1] in a line: Relative chemical stability of cyclopropenes measured by 1H-NMR. Format: physicochemical. The following applies: for Stability (relative chemical stability, based on cyclopropenes having a chain length of 1): 1H-NMR, CDCl3, stored at −20° C. or room temperature, relative to chain length 1. The text has this:
A variety of analysis methods can be used to analyze the derivatives of Formula 6, since the absorbance of cyclopropenes containing an aryl group can be easily measured in the UV range. It can be confirmed that the chemical stability of the derivatives increases, when the length of chains to link an aryl ring to a cyclopropene ring is 2 or more. […] It is supposed that the stability of cyclopropenes increase due to the fact that π electrons of aryl groups affect π electrons of cyclopropenes.
The following Table 1 summarizes the relative chemical stability of cyclopropenes having a chain length of 2, 3, 4 or 5, based on the chemical stability of cyclopropenes having a chain length of 1. In the case of cyclopropene having a chain length of 1, the structure thereof can be confirmed via ^1H-NMR within one hour following synthesis (degraded to a level of 50% or more within one hour at 30° C.). In the case of cyclopropene having a chain length of zero, synthesis thereof was attempted in accordance with the present invention, but was impossible by a conventional method. Meanwhile, in the case of cyclopropenes having a chain length of 2 or more, the structure thereof can be precisely confirmed by ^1H-NMR as well as ^13C-NMR. The stability of these cyclopropenes was measured by ^1H-NMR while NMR cells (CDCl3) were stored at −20° C. or room temperature. In particular, cyclopropenes having chains of 3 or more were so stable that their half-life reached 5 days or longer at −20° C. or lower. In ^1H-NMR analysis, the stability was evaluated by comparing integral values at 4 to 6.5 ppm (1H) and 0.8 to 0.9 ppm (2H), characteristic peaks of 1-alkylcyclopropenes, using a small amount of 1,1,3,3-tetramethylurea (2.80 ppm) as an internal standard. Furthermore, the stability was also qualitatively evaluated by comparing integral value of the peak newly generated adjacent to the peak of the olefin proton of cyclopropene ring, as a 1-alkylcyclopropene compound is decomposed.

The test system of data set [2] is tomato. The experiment in a line: Experimental Example 3: Efficacy test on tomato for other drugs (emulsion and oil-based formulation). The class given is in vivo. The arrangement: key: an area in which the surface of tomato was colored in pink was 10% or less; an area in which the surface of tomato was completely colored in red was 10 to 40%; 2: an area in which the surface of tomato was completely colored in red was 40 to 70%; 3: an area in which the surface of tomato was completely colored in red was 70% or more and the bottom area remained green; 4: an area in which the surface of tomato was most colored in red and only a part of (0 to 10%) the bottom area remained green; 5: the surface of tomato did not entirely color in green. Particulars: individual tomatoes n=4. The method, then:
At this time, the tops of tomatoes most early turned red, while the bottoms thereof most lately turned red. For this reason, in order to accurately evaluate the difference in reddening, the coloring evaluated was based on the area of red color, rather than the color of tomatoes. […] Accordingly, the grade level is proportional to the rate at which the tomatoes ripened.
1.0 mM emulsions and oil-based formulations of four agents, i.e., 1-(2-(4-methoxyphenyl)ethyl)cyclopropene, 1-(3-(4-methoxyphenyl)propyl)cyclopropene, 1-(3-phenoxypropyl)cyclopropene and 1-(4-phenoxybutyl)cyclopropene were prepared in accordance with Examples 1 and 2.
The tomatoes were screened in the same manner as in Experimental Example 1 and divided into 9 groups (n=4), i.e., a non-treated group and 4 emulsion-type agent groups and 4 oil-based formulation-type agent groups. Tomatoes were treated with the previously prepared agent using a household sprayer such that the surface thereof was saturated. The tomatoes were stood at room temperature (25-30° C.) for 3 days and a reddening level thereof was evaluated based on grades of 0 to 5.

Where [3] appears, read: 1.0 mM Emulsion, Day 0, room temperature (25-30° C.).
The mark [4] stands for this setting: 1.0 mM Emulsion, Day 1, room temperature (25-30° C.).
Where [5] appears, read: 1.0 mM Emulsion, Day 2, room temperature (25-30° C.).
Where [6] appears, read: 1.0 mM Emulsion, Day 3, room temperature (25-30° C.).
Setting [7] is: 1.0 mM Oil-based formulation, Day 0, room temperature (25-30° C.).
Setting [8] is: 1.0 mM Oil-based formulation, Day 1, room temperature (25-30° C.).
[9] abbreviates: 1.0 mM Oil-based formulation, Day 2, room temperature (25-30° C.).
Where [10] appears, read: 1.0 mM Oil-based formulation, Day 3, room temperature (25-30° C.).

The structures appear in SMILES notation. Where “and” joins values, the source holds several entries; their conditions need not be identical. Equal values may be shown once. A value given as a limit tells only on which side of the number the result lay.

For the compound `C1=C(Cc2ccccc2)C1` [1-benzylcyclopropene], in data set [1], the “chemical stability (in words)” value is “considerably unstable” and the “Stability (relative chemical stability, based on cyclopropenes having a chain length of 1)” value was found to be 1.
Turning to `COc1ccc(CCC2=CC2)cc1` [(2-(4-Methoxyphenyl)ethyl), 1-(2-(4-methoxyphenyl)ethyl)cyclopropene], the “reddening level (grade 0 to 5)” value in data set [2] (setting [3]) is 0 (an area in which the surface of tomato was colored in pink was 10% or less) (2×) and 1 (an area in which the surface of tomato was completely colored in red was 10 to 40%) and 2 (an area in which the surface of tomato was completely colored in red was 40 to 70%); in data set [2] (setting [4]) it was 1 (an area in which the surface of tomato was completely colored in red was 10 to 40%) (2×) and 3 (an area in which the surface of tomato was completely colored in red was 70% or more and the bottom area remained green) (2×); in data set [2] (setting [5]), 3 (an area in which the surface of tomato was completely colored in red was 70% or more and the bottom area remained green) (2×) and 4 and 5; in data set [2] (setting [6]), 4 (2×) and 5 (2×); in data set [2] (setting [7]), 0 (an area in which the surface of tomato was colored in pink was 10% or less) (2×) and 1 (an area in which the surface of tomato was completely colored in red was 10 to 40%) and 2 (an area in which the surface of tomato was completely colored in red was 40 to 70%); in data set [2] (setting [8]) it was 1 (an area in which the surface of tomato was completely colored in red was 10 to 40%) (2×) and 2 (an area in which the surface of tomato was completely colored in red was 40 to 70%) and 3 (an area in which the surface of tomato was completely colored in red was 70% or more and the bottom area remained green). Moreover, the “reddening level (grade 0 to 5)” value in data set [2] (setting [9]) is 2 (an area in which the surface of tomato was completely colored in red was 40 to 70%) (2×) and 3 (an area in which the surface of tomato was completely colored in red was 70% or more and the bottom area remained green) and 4; in data set [2] (setting [10]), 3 (an area in which the surface of tomato was completely colored in red was 70% or more and the bottom area remained green) (2×) and 4 and 5. Further, the “Stability (relative chemical stability, based on cyclopropenes having a chain length of 1)” value in data set [1] is on record as over 10.
Regarding `COc1ccc(CCCC2=CC2)cc1` [(3-(4-Methoxyphenyl)propyl), 1-(3-(4-methoxyphenyl)propyl)cyclopropene], the “reddening level (grade 0 to 5)” value in data set [2] (setting [3]) is 0 (an area in which the surface of tomato was colored in pink was 10% or less) (2×) and 1 (an area in which the surface of tomato was completely colored in red was 10 to 40%) and 2 (an area in which the surface of tomato was completely colored in red was 40 to 70%); in data set [2] (setting [4]), 0 (an area in which the surface of tomato was colored in pink was 10% or less) (2×) and 1 (an area in which the surface of tomato was completely colored in red was 10 to 40%) and 2 (an area in which the surface of tomato was completely colored in red was 40 to 70%); in data set [2] (setting [5]) it was 1 (an area in which the surface of tomato was completely colored in red was 10 to 40%) (2×) and 2 (an area in which the surface of tomato was completely colored in red was 40 to 70%) and 3 (an area in which the surface of tomato was completely colored in red was 70% or more and the bottom area remained green); in data set [2] (setting [6]), 2 (an area in which the surface of tomato was completely colored in red was 40 to 70%) (2×) and 3 (an area in which the surface of tomato was completely colored in red was 70% or more and the bottom area remained green) and 4; in data set [2] (setting [7]) it was 0 (an area in which the surface of tomato was colored in pink was 10% or less) (2×) and 1 (an area in which the surface of tomato was completely colored in red was 10 to 40%) and 2 (an area in which the surface of tomato was completely colored in red was 40 to 70%); in data set [2] (setting [8]) it was 0 (an area in which the surface of tomato was colored in pink was 10% or less) (2×) and 1 (an area in which the surface of tomato was completely colored in red was 10 to 40%) and 2 (an area in which the surface of tomato was completely colored in red was 40 to 70%). Also, the “reddening level (grade 0 to 5)” value in data set [2] (setting [9]) is 1 (an area in which the surface of tomato was completely colored in red was 10 to 40%) (2×) and 2 (an area in which the surface of tomato was completely colored in red was 40 to 70%) and 3 (an area in which the surface of tomato was completely colored in red was 70% or more and the bottom area remained green); in data set [2] (setting [10]), 1 (an area in which the surface of tomato was completely colored in red was 10 to 40%) and 2 (an area in which the surface of tomato was completely colored in red was 40 to 70%) and 3 (an area in which the surface of tomato was completely colored in red was 70% or more and the bottom area remained green) (2×). Also, in data set [1], the “Stability (relative chemical stability, based on cyclopropenes having a chain length of 1)” value was >>10.
`C1=C(CCCOc2ccccc2)C1` [(3-Phenoxypropyl), 1-(3-phenoxypropyl)cyclopropene]: the “reddening level (grade 0 to 5)” value in data set [2] (setting [3]) was 0 (an area in which the surface of tomato was colored in pink was 10% or less) (2×) and 1 (an area in which the surface of tomato was completely colored in red was 10 to 40%) and 2 (an area in which the surface of tomato was completely colored in red was 40 to 70%); in data set [2] (setting [4]), 0 (an area in which the surface of tomato was colored in pink was 10% or less) (2×) and 1 (an area in which the surface of tomato was completely colored in red was 10 to 40%) and 2 (an area in which the surface of tomato was completely colored in red was 40 to 70%); in data set [2] (setting [5]), 1 (an area in which the surface of tomato was completely colored in red was 10 to 40%) (2×) and 2 (an area in which the surface of tomato was completely colored in red was 40 to 70%) (2×); in data set [2] (setting [6]), 2 (an area in which the surface of tomato was completely colored in red was 40 to 70%) (2×) and 3 (an area in which the surface of tomato was completely colored in red was 70% or more and the bottom area remained green) (2×); in data set [2] (setting [7]) it was 0 (an area in which the surface of tomato was colored in pink was 10% or less) (2×) and 1 (an area in which the surface of tomato was completely colored in red was 10 to 40%) and 2 (an area in which the surface of tomato was completely colored in red was 40 to 70%); in data set [2] (setting [8]), 0 (an area in which the surface of tomato was colored in pink was 10% or less) (2×) and 1 (an area in which the surface of tomato was completely colored in red was 10 to 40%) and 2 (an area in which the surface of tomato was completely colored in red was 40 to 70%). In addition, the “reddening level (grade 0 to 5)” value in data set [2] (setting [9]) was 0 (an area in which the surface of tomato was colored in pink was 10% or less) (2×) and 2 (an area in which the surface of tomato was completely colored in red was 40 to 70%) and 3 (an area in which the surface of tomato was completely colored in red was 70% or more and the bottom area remained green); in data set [2] (setting [10]), 1 (an area in which the surface of tomato was completely colored in red was 10 to 40%) (2×) and 2 (an area in which the surface of tomato was completely colored in red was 40 to 70%) and 3 (an area in which the surface of tomato was completely colored in red was 70% or more and the bottom area remained green). Also, the “Stability (relative chemical stability, based on cyclopropenes having a chain length of 1)” value in data set [1] is on record as >>10.
Turning to `COc1ccc(CC2=CC2)cc1` [A=—, Z=4-OCH, 1-(4-methoxybenzyl)cyclopropene], the “Stability (relative chemical stability, based on cyclopropenes having a chain length of 1)” value in data set [1] was about 1.
